Molecular target: P. falciparum apicoplast DNA polymerase (Pf-apPOL) (Plasmodium falciparum, UniProt Q8ILY1)
Test: Fluorescence-based high-throughput DNA polymerase assay (molecular beacon), primary screen and dose-response
Format: biochemical
Details: for DNA Pol: 90 min, 10 µM
Procedure: The HT assay employs a molecular beacon, a stem-loop DNA template with a Cy3 dye and the Black Hole Quencher on the 3′ and 5′ ends of the DNA, respectively. Pf-apPOL concentration is based on a calculated absorptivity of ε280 = 56750 M^−1 cm^−1. Reactions were carried out at 25 °C, using Corning 3575 […] (well-volume, 20 µL). Assays testing for compound inhibition composed of reaction buffer (pH 7.9 in 50 mM potassium acetate, 20 mM Tris-acetate and 10 mM magnesium acetate), Pf-apPOL (20 nM), DNA substrate (20 nM), dNTPs (6 µM), and compound (10 µM in DMSO). The DNA and nucleotide substrates (dNTPs) were at concentrations of 20 nM and 6 µM, respectively, in the assay. Pf-apPOL was incubated in the reaction buffer with dNTPs and the compound of interest (10 µM, in the assay) at 25 °C for 10 min. The DNA substrate was then added and the reaction was allowed to proceed for 90 min at 25 °C.
Each assay plate contained 16 negative controls (no Pf-apPOL, DMSO present) and 16 positive controls (Pf-apPOL present, no DMSO). The fluorescence of each well was determined using a BioTek Synergy Neo fluorescence plate reader using excitation and emission wavelengths of 555 and 570 nm, respectively.
In the above, Min is the average of fluorescence emission of the negative controls (substrate only), Max the average fluorescence emission from the positive controls (enzyme + substrate), and Test the emission from the assays in the presence of compounds (enzyme + compound + substrates). […] […] The IC50 of each compound was determined using Equation (2): (2) IC50= Vmax/(1+ (I/IC50)^n)
In the above, n measures cooperativity, with n > 1 indicating synergistic binding of more than a single molecule of the compound.
To identify apPOL inhibitors we utilised our previously developed high-throughput DNA polymerase assay. The HT assay is based on a molecular beacon DNA template that forms a stem-loop with a Cy3 dye and the Black Hole Quencher on the 3′ and 5′ ends of the DNA, respectively. DNA polymerase activity extends an annealed primer through the stem region, displacing the fluorophore from the quencher, thereby increasing its fluorescence (Figure 1(A)). The assay accurately recapitulates the kinetic behaviour of apPOL, as measured through more conventional low-throughput gel-based assays. The Z′ factor for the assay described here was 0.9 across all plates (data not shown).
Figure 1. High-throughput screening. (A) The fluorescent-based DNA polymerase assay used to screen the compound libraries. The DNA template strand is a hairpin loop with a primer annealed to the loop. The 3’ end of the primer is 11 bases away from the 6 bp duplex. Strand displacement activity of the DNA polymerase separates the Cy3 dye from the Black hole quencher leading to an increase in fluorescent signal. (B) The high-throughput assay workflow. The DNA polymerase is incubated with […] compound for 10 min prior to addition of the hairpin substrate. The reaction is quenched at 3 different time points and the fluorescent signal is measured and % inhibition is determined using the provided equation.

P. falciparum apicoplast DNA polymerase (Pf-apPOL), sequence (Q8ILY1 entry or part of it): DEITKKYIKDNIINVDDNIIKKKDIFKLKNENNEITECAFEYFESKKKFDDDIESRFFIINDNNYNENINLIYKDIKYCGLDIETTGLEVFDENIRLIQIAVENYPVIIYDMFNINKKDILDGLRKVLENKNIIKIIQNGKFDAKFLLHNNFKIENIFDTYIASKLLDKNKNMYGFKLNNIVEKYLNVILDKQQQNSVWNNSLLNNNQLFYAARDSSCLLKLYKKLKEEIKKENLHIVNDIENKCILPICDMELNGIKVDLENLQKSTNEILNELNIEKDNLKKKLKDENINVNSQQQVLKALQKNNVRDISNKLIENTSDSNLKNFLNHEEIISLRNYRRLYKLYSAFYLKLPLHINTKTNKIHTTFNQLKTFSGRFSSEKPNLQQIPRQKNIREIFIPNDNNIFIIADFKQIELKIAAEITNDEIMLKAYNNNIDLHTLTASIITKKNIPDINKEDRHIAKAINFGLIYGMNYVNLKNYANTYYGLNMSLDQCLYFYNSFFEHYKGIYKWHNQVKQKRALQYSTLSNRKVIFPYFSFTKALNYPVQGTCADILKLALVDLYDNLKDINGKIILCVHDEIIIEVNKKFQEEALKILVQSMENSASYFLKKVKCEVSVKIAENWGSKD

## COc1ccc(-c2cc(=O)c3cc(O)ccc3o2)cc1OC [KU0193655]
DRC-1, concentration 2.5
  % inhibition Apo pol 10': -0.1967%
  % inhibition Apol 90': 2.413%
  % inhibition apPOL 180': 2.832%
DRC-1, concentration 5
  % inhibition Apo pol 10': 8.174%
  % inhibition Apol 90': 7.049%
  % inhibition apPOL 180': 6.576%
DRC-1, concentration 10
  % inhibition Apo pol 10': 18.1231%
  % inhibition Apol 90': 17.1119%
  % inhibition apPOL 180': 16.442%
DRC-1, concentration 20
  % inhibition Apo pol 10': 34.6118%
  % inhibition Apol 90': 31.7706%
  % inhibition apPOL 180': 31.1115%
DRC-1, concentration 40
  % inhibition Apo pol 10': 62.4482%
  % inhibition Apol 90': 60.6022%
  % inhibition apPOL 180': 58.5037%
DRC-1, concentration 80
  % inhibition Apo pol 10': 84.2826%
  % inhibition Apol 90': 83.5295%
  % inhibition apPOL 180': 84.0263%
DRC-2, 5', concentration 2.5
  % inhibition Apo pol 5': -0.529%
DRC-2, 5', concentration 5
  % inhibition Apo pol 5': 0.718%
DRC-2, 5', concentration 10
  % inhibition Apo pol 5': 15%
DRC-2, 5', concentration 20
  % inhibition Apo pol 5': 23%
DRC-2, 5', concentration 40
  % inhibition Apo pol 5': 39%
DRC-2, 5', concentration 80
  % inhibition Apo pol 5': 47%
DRC-2, 40', concentration 2.5
  % inhibition Apol 40': 1.36%
DRC-2, 40', concentration 5
  % inhibition Apol 40': 3.64%
DRC-2, 40', concentration 10
  % inhibition Apol 40': 19%
DRC-2, 40', concentration 20
  % inhibition Apol 40': 29%
DRC-2, 40', concentration 40
  % inhibition Apol 40': 49%
DRC-2, 40', concentration 80
  % inhibition Apol 40': 61%
DRC-2, concentration 2.5
  % inhibition ApPOL 90': 0.778%
  % inhibition apPOL 180': -1.88%
DRC-2, concentration 5
  % inhibition ApPOL 90': 6%
  % inhibition apPOL 180': 5%
DRC-2, concentration 10
  % inhibition ApPOL 90': 20%
  % inhibition apPOL 180': 21%
DRC-2, concentration 20
  % inhibition ApPOL 90': 32%
  % inhibition apPOL 180': 34%
DRC-2, concentration 40
  % inhibition ApPOL 90': 53%
  % inhibition apPOL 180': 56%
DRC-2, concentration 80
  % inhibition ApPOL 90': 65%
  % inhibition apPOL 180': 68%
Primary screen value by plate and well
  DNA Pol: 27
Primary screen value of the 186 hits, unit not given
  DNA Pol: 27

## COCCN(CCOC)Cc1c(O)ccc2c1OC(=Cc1cc(Br)ccc1OC)C2=O [KU0198471]
'DNA Pol' of the 186 hits list (primary screen result), unit not given
  DNA Pol: 63
DRC-1, concentration 2.5
  % inhibition Apo pol 10': -2.842%
  % inhibition Apol 90': 0.2446%
  % inhibition apPOL 180': 3.8606%
DRC-1, concentration 5
  % inhibition Apo pol 10': 2.517%
  % inhibition Apol 90': 8.305%
  % inhibition apPOL 180': 14.5947%
DRC-1, concentration 10
  % inhibition Apo pol 10': 15.0312%
  % inhibition Apol 90': 20.0345%
  % inhibition apPOL 180': 28.8657%
DRC-1, concentration 20
  % inhibition Apo pol 10': 43.5523%
  % inhibition Apol 90': 57.0182%
  % inhibition apPOL 180': 74.003%
DRC-1, concentration 40
  % inhibition Apo pol 10': 79.9378%
  % inhibition Apol 90': 88.9313%
  % inhibition apPOL 180': 99.2826%
DRC-1, concentration 80
  % inhibition Apo pol 10': 100.142%
  % inhibition Apol 90': 100.102%
  % inhibition apPOL 180': 101.453%
DRC-2, 5', concentration 2.5 (unit not given)
  % inhibition Apo pol 5': 10%
DRC-2, 40', concentration 2.5 (unit not given)
  % inhibition Apol 40': 10%
DRC-2, 5', concentration 2.5
  % inhibition Apo pol 5': 10%
DRC-2, 5', concentration 5
  % inhibition Apo pol 5': 10%
DRC-2, 5', concentration 5 (unit not given)
  % inhibition Apo pol 5': 10%
DRC-2, 5', concentration 10
  % inhibition Apo pol 5': 33%
DRC-2, 5', concentration 20
  % inhibition Apo pol 5': 48%
DRC-2, 5', concentration 40
  % inhibition Apo pol 5': 59%
DRC-2, 5', concentration 80
  % inhibition Apo pol 5': 60%
DRC-2, 40', concentration 2.5
  % inhibition Apol 40': 10%
DRC-2, 40', concentration 5
  % inhibition Apol 40': 6%
DRC-2, 40', concentration 10
  % inhibition Apol 40': 36%
DRC-2, 40', concentration 20
  % inhibition Apol 40': 53%
DRC-2, 40', concentration 40
  % inhibition Apol 40': 73%
DRC-2, 40', concentration 80
  % inhibition Apol 40': 79%
DRC-2, concentration 2.5
  % inhibition ApPOL 90': 10%
  % inhibition apPOL 180': 4.6%
DRC-2, concentration 2.5 (unit not given)
  % inhibition ApPOL 90': 10%
DRC-2, concentration 5
  % inhibition ApPOL 90': -0.305%
  % inhibition apPOL 180': -68%
DRC-2, concentration 10
  % inhibition ApPOL 90': 34%
  % inhibition apPOL 180': 25%
DRC-2, concentration 20
  % inhibition ApPOL 90': 52%
  % inhibition apPOL 180': 41%
DRC-2, concentration 40
  % inhibition ApPOL 90': 75%
  % inhibition apPOL 180': 72%
DRC-2, concentration 80
  % inhibition ApPOL 90': 82%
  % inhibition apPOL 180': 85%
Primary screen value of the library well, unit not given
  DNA Pol: 63

— publication PMC9090415, “Discovery of small molecule inhibitors of Plasmodium falciparum apicoplast DNA polymerase” (Journal of Enzyme Inhibition and Medicinal Chemistry, 2022)
